The text below walks through data of US20250313530A1, “SMALL MOLECULE INHIBITORS OF INTERLEUKIN-4 AND USES THEREOF” (Trustees of Boston University, priority 2024, published 2025).

Structures are written as SMILES. Where “and” joins values, the source holds several entries; their conditions need not be identical. Equal entries are not always repeated. Where two headings read alike, the source gives them in different places. Some results are limits rather than exact numbers.

This test concerns the target T1, IL-4 (Homo sapiens, UniProt P05112).
T1 construct: purchased Acros Biosystems IL4-H4218; host or cells: HEK-293
T1 sequence (P05112 25-153): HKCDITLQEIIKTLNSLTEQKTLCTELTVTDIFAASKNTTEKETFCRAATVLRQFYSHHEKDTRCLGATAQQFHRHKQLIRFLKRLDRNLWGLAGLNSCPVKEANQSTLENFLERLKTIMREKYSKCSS
Description: HEK-Blue IL-4/IL-13 reporter assay, IL-4 inhibition. The note with it: for inhibition at 10 µM: HEK-Blue; for inhibition at 10 µM / % Inhibition: IL-4, HEK Blue IL-4/IL-13 reporter assay, 10 μM; for EC50: HEK Blue IL-4/IL-13 reporter assay, read-out: EC50. Type of test: cell-based. Here is the method: HEK-Blue IL-4/IL-13 Inhibition assay. HEK-Blue IL-4/IL-13 reporter cell lines were purchased from Invivogen and cultured in DMEM with 10% Heat Inactivated Fetal Bovine Serum (FBS), 100 U/ml-100 μg/ml Pen-Strep, 10 μg/ml blasticidin, 100 μg/ml Normocin and 100 μg/ml Zeocin. Cells were tested for secreted embryonic alkaline phosphatase (SEAP) production induced by IL-4 alone prior to small molecule screening.
22.5 μl of small molecule in DMEM 4% DMSO was added to 22.5 μl of 1 ng/ml IL-4 in DMEM in a non-binding 96-well reaction plate for 30 minutes at room temperature. The reaction plate was further incubated for 30-60 min at 37° C. HEK-Blue IL-4/IL-13 reporter cell line was used between passages 11-17. […] Measurements were done in triplicate. The plate was incubated for ˜22-24 hours at 37° C./5% CO2. Quanti-Blue dye was prepared as per the manufacturer's recommendation and 160 μl was dispensed in each well of a 96-well plate (avoid edges to avoid evaporation), 40 μl of cell supernatant was added to the same plate and incubated for 3 hours at 37° C./5% CO2. Optical density was then measured at 650 nm using Molecular Devices SpectraMax M5 Microplate reader. Data was analyzed and plotted using GraphPad Prism 9.2.0.
For orientation: In a reporter assay the amount or activity of a reporter protein is the signal.

For orientation: inhibition means the change of the read-out against control, counted positive when it falls. `N#Cc1c(-c2ccc(O)c(O)c2)cc(C2CC2)nc1N` [2A/55, 2-amino-6-cyclopropyl-4-(3,4-dihydroxyphenyl) nicotinonitrile]: where the note is “read-out: % Inhibition”, the inhibition at 10 µM was 2.47 ± 14.2%. As for `N#Cc1c(-c2ccc(O)c(O)c2)cc(C2CCC2)nc1N` [3A/56, 2-amino-6-cyclobutyl-4-(3,4-dihydroxyphenyl) nicotinonitrile], under “read-out: % Inhibition”, the inhibition at 10 µM was determined as 28.5 ± 12.1%. For orientation: % Inhibition means the share of the control response that was lost under treatment. Low values mean a weak effect, high ones a strong effect. On to `N#Cc1c(-c2ccc(O)c(O)c2)cc(-c2cccc(F)c2)nc1N` [Compound 1, 2-amino-4-(3A-dihydroxyphenyl)-6-(3-fluorophenyl)nicotinonitrile], for which the “% Inhibition” value was “No inhibition”.

In the case of `N#Cc1c(-c2ccc(O)c(O)c2)cc(-c2ccccc2F)nc1N` [Compound 2, 2-amino-4-(3A-dihydroxyphenyl)-6-(2-fluorophenyl)nicotinonitrile], the “% Inhibition” value was determined as 40.0 ± 5.87%. What is called EC50 is the concentration giving half of the maximal effect. For the molecule `N#CC1C(=N)N=C(c2ccc(Br)cc2)C=C1c1ccc(O)c(O)c1` (stereo not drawn) [Compound 3, 6-(4-bromophenyl)-4-(3,4-dihydroxyphenyl)-2-imino-2,3-dihydropyridine-3-carbonitrile], the “% Inhibition” value was 63.3 ± 2.54% and 93.3 ± 2.54%. Also, for the setting “dose response, IL-4 inhibition”, the EC50 was determined as 1300 ± 390 nM.

For the molecule `N#Cc1c(-c2ccc(O)c(O)c2)cc(-c2ccc(O)cc2)[nH]c1=N` [Compound 4, 4-(3,4-dihydroxyphenyl)-6-(4-hydroxyphenyl)-2-imino-1,2-dihydropyridine-3-carbonitrile], the “% Inhibition” value is 81.2 ± 18.9% and the inhibition at 10 µM was over 80%. Moreover, for the setting “dose response, IL-4 inhibition”, the EC50 was determined as 1140 ± 380 nM. Turning to `Cc1ccc(-c2cc(-c3ccc(O)c(O)c3)c(C#N)c(=N)[nH]2)cc1` [Compound 5, 4-(3,4-dihydroxyphenyl)-2-imino-6-(p-tolyl)-1,2-dihydropyridine-3-carbonitrile], the “% Inhibition” value is 62.7 ± 4.30% and 82.7 ± 4.30%; the inhibition at 10 µM is over 80%. Besides, under “dose response, IL-4 inhibition”, the EC50 is 1290 ± 470 nM. With `COc1ccc(C2=NC(=N)C(C#N)C(c3ccc(O)c(O)c3)=C2)cc1` (stereo not drawn) [Compound 6, 4-(3,4-dihydroxyphenyl)-2-imino-6-(4-methoxyphenyl)-2,3-dihydropyridine-3-carbonitrile], the “% Inhibition” value was 51.7 ± 5.05%. For the same molecule, the EC50 (dose response, IL-4 inhibition) worked out at 3020 ± 610 nM. As to `N#Cc1c(-c2ccc(O)c(O)c2)cc(-c2cccnc2)[nH]c1=N` [Compound 7, 4-(3,4-dihydroxyphenyl)-6-imino-1,6-dihydro-[2,3′-bipyridine]-5-carbonitrile], the “% Inhibition” value amounted to 84.3 ± 1.11%. Further, the inhibition at 10 µM (read-out: % Inhibition) stood at 94.3%. For the same molecule, the EC50 (dose response, IL-4 inhibition) was found to be 2020 ± 970 nM. Consider `N#Cc1c(-c2ccc(O)c(O)c2)cc(-c2ccco2)nc1N` [Compound 8, 2-amino-4-(3,4-dihydroxyphenyl)-6-(furan-2-yl)nicotinonitrile], for which the “% Inhibition” value is “No inhibition”. Consider `N#CC1C(=N)N=C(c2cnccn2)C=C1c1ccc(O)c(O)c1` (stereo not drawn) [Compound 9, 4-(3,4-dihydroxyphenyl)-2-imino-6-(pyrazin-2-yl)-2,3-dihydropyridine-3-carbonitrile], for which the inhibition at 10 µM (read-out: % Inhibition) is 64.2 ± 13.4%. The same measure, in the same setting: with `N#Cc1c(-c2ccc(O)c(O)c2)cc(-c2ccc(-c3ccccc3)cc2)[nH]c1=N` [Compound 10, 6-([1,1′-biphenyl]-4-yl)-4-(3,4-dihydroxyphenyl)-2-imino-1,2-dihydropyridine-3-carbonitrile] the figure was 4.73 ± 4.58%. Regarding `N#Cc1c(-c2ccc(O)c(O)c2)cc(-c2ccc3ccccc3c2)[nH]c1=N` [Compound 11, 4-(3,4-dihydroxyphenyl)-2-imino-6-(naphthalen-2-yl)-1,2-dihydropyridine-3-carbonitrile], the inhibition at 10 µM stood at 54.7 ± 8.42%. Consider `N#Cc1c(-c2ccc(O)c(O)c2)cc(C2CCCCC2)nc1N` [Compound 12, 2-amino-6-cyclohexyl-4-(3,4-dihydroxyphenyl)nicotinonitrile], for which the “% Inhibition” value was 48.4 ± 5.80% and the inhibition at 10 µM is 49.4%. For `Cc1cc(-c2ccc(O)c(O)c2)c(C#N)c(N)n1` [Compound 13, 2-amino-4-(3,4-dihydroxyphenyl)-6-methylnicotinonitrile], the inhibition at 10 µM (read-out: % Inhibition) turned out to be 70.2%. As for `N#Cc1c(-c2ccc(O)c(O)c2)cc(-c2ccc(-n3ccnc3)cc2)nc1N` [Compound 16, 6-(4-(1H-imidazol-1-yl)phenyl)-2-amino-4-(3,4-dihydroxyphenyl)nicotinonitrile], the “% Inhibition” value is “No inhibition”.

Turning to `CN(C)c1ccc(-c2cc(-c3ccc(O)c(O)c3)c(C#N)c(N)n2)cc1` [Compound 17, 2-amino-4-(3,4-dihydroxyphenyl)-6-(4-(dimethylamino)phenyl)nicotinonitrile], the inhibition at 10 µM (read-out: % Inhibition) stood at 22.9 ± 1.48%.

As to `Cc1ccc(N2CCCCC2)cc1` [Compound 18], the inhibition at 10 µM (read-out: % Inhibition) stood at 88.2 ± 13.9%. The same measure, in the same setting: with `N#Cc1c(-c2ccc(O)c(O)c2)cc(-c2ccc(F)cc2)[nH]c1=O` [Compound 19, 4-(3,4-dihydroxyphenyl)-6-(4-fluorophenyl)-2-oxo-1,2-dihydropyridine-3-carbonitrile] the figure was 71.2 ± 5.6%. `Cc1c(-c2ccc(F)cc2)[nH]c(=N)c(C#N)c1-c1ccc(O)c(O)c1` [Compound 20, 4-(3,4-dihydroxyphenyl)-6-(4-fluorophenyl)-2-imino-5-methyl-1,2-dihydropyridine-3-carbonitrile]: the inhibition at 10 µM (read-out: % Inhibition) was 97.7%. In addition, for the setting “dose response, IL-4 inhibition”, the “potency compared with Nico-52 (in words)” value is given as “less potency than Nico-52” and the half-maximal effective concentration (EC50) is 2690 ± 570 nM. As to `N#CC1C(=O)N=C(c2ccc(-c3ccccc3)cc2)C=C1c1ccc(O)c(O)c1` (stereo not drawn) [Compound 31, 6-([1,1′-biphenyl]-4-yl)-4-(3,4-dihydroxyphenyl)-2-oxo-2,3-dihydropyridine-3-carbonitrile], where the note is “read-out: % Inhibition”, the inhibition at 10 µM worked out at 68.7 ± 9.84%.

In the case of `N#CC1C(=O)N=C(c2ccc(O)cc2)C=C1c1ccc(O)c(O)c1` (stereo not drawn) [Compound 32, 4-(3,4-dihydroxyphenyl)-6-(4-hydroxyphenyl)-2-oxo-2,3-dihydropyridine-3-carbonitrile], the inhibition at 10 µM turned out to be 94.1%.

In turn, `N#Cc1c(-c2ccc(O)c(C(=O)O)c2)cc(-c2ccc(N)cc2)nc1N` [Compound 33, 5-(2-amino-6-(4-aminophenyl)-3-cyanopyridin-4-yl)-2-hydroxybenzoic acid] gave an inhibition at 10 µM of 6.63%. Same read-out and setting: then `N#Cc1c(-c2ccc(Cl)c(Cl)c2)cc(-c2ccc(F)cc2)[nH]c1=O` [Compound 34, 4-(3,4-dichlorophenyl)-6-(4-fluorophenyl)-2-oxo-1,2-dihydropyridine-3-carbonitrile], with 44.2 ± 11.1%. Turning to `N#Cc1c(-c2ccccc2)cc(-c2ccc(F)cc2)[nH]c1=O` [Compound 35, 6-(4-fluorophenyl)-2-oxo-4-phenyl-1,2-dihydropyridine-3-carbonitrile], under “read-out: % Inhibition”, the inhibition at 10 µM turned out to be 27.6 ± 25.1%.

Consider `Cc1ccc(-c2cc(-c3ccc(F)cc3)[nH]c(=O)c2C#N)o1` [Compound 37, 6(4-fluorophenyl)-4-(5-methylfuran-2-yl)-2-oxo-1,2-dihydropyridine-3-carbonitrile], for which, for the setting “read-out: % Inhibition”, the inhibition at 10 µM is 0.48 ± 17.1%. `N#Cc1c(-c2ccccc2O)cc(-c2ccc(F)cc2)nc1O` [Compound 39, 6-(4-fluorophenyl)-2-hydroxy-4-(2-hydroxyphenyl)nicotinonitrile]: the inhibition at 10 µM was 100%. Also, under “dose response, IL-4 inhibition”, the concentration for a half-maximal effect (EC50) was determined as 1750 nM. Molecule `N#Cc1c(-c2cccc(O)c2)cc(-c2ccc(F)cc2)[nH]c1=O` [Compound 40, 6-(4-fluorophenyl)-4-(3-hydroxyphenyl)-2-oxo-1,2-dihydropyridine-3-carbonitrile] came in with an inhibition at 10 µM of 64.3 ± 12.3%. On the same count and under the same terms, then `N#Cc1c(-c2ccc(O)cc2)cc(-c2ccc(F)cc2)[nH]c1=O` [Compound 41, 6(4-fluorophenyl)-4-(4-hydroxyphenyl)-2-oxo-1,2-dihydropyridine-3-carbonitrile], with 60.7 ± 10.3%; and `COc1cc(-c2cc(-c3ccc(F)cc3)[nH]c(=O)c2C#N)ccc1O` [Compound 42, 6(4-fluorophenyl)-4-(4-hydroxy-3-methoxyphenyl)-2-oxo-1,2-dihydropyridine-3-carbonitrile], with 67.6 ± 4.88%. Take `N#Cc1c(-c2ccccc2)cc(-c2ccc(F)cc2)[nH]c1=N` [Compound 43, 6-(4-fluorophenyl)-2-imino-4-phenyl-1,2-dihydropyridine-3-carbonitrile]: the inhibition at 10 µM (read-out: % Inhibition) is 6.13 ± 9.13%. Still for that read-out and setting: then `Cc1ccc(-c2cc(-c3ccc(F)cc3)[nH]c(=N)c2C#N)o1` [Compound 44, 6-(4-fluorophenyl)-2-imino-4-(5-methylfuran-2-yl)-1,2-dihydropyridine-3-carbonitrile], with 33.9 ± 21.4%; and `Cc1ccc(-c2cc(-c3ccc(F)cc3)[nH]c(=N)c2C#N)s1` [Compound 45, 6-(4-fluorophenyl)-2-imino-4-(5-methylthiophen-2-yl)-1,2-dihydropyridine-3-carbonitrile], with 37.5 ± 19.9%.
